Laboratory results taken from ChEMBL document CHEMBL3885881, “DrugMatrix”.

Species on record: Rattus norvegicus
Experiment: DrugMatrix - Regimen: Daily Repeat
Format: toxicity, organism-based, Sprague-Dawley
Parameters: regimen Daily Repeat, gender Male, age 6-8 weeks
Conditions: in vivo, po, route oral GAVAGE, vehicle .5 % CMC; for ABSOLUTE BASOPHIL / ABSOLUTE EOSINOPHIL / ABSOLUTE LYMPHOCYTE / ABSOLUTE MONOCYTE / ABSOLUTE SEGMENTED NEUTROPHIL / BASOPHIL / EOSINOPHIL / ERYTHROCYTE COUNT / HEMATOCRIT / HEMOGLOBIN / LEUKOCYTE COUNT / LYMPHOCYTE / MEAN CORPUSCULAR HEMOGLOBIN / MEAN CORPUSCULAR HEMOGLOBIN CONCENTRATION / MEAN CORPUSCULAR VOLUME / MONOCYTE / NEUTROPHIL / NUCLEATED RED BLOOD CELLS / PLATELET COUNT: tissue Blood; for ALANINE AMINOTRANSFERASE / ALBUMIN / ALKALINE PHOSPHATASE / ASPARTATE AMINOTRANSFERASE / BLOOD UREA NITROGEN / CARBON DIOXIDE / CHLORIDE / CHOLESTEROL / CREATINE PHOSPHOKINASE / CREATININE / GLUCOSE / LACTATE DEHYDROGENASE / LIPASE / PHOSPHORUS / POTASSIUM / SODIUM / TOTAL BILIRUBIN / TOTAL PROTEIN / URIC ACID: tissue Plasma
[1] = 100 mg/kg, 72 h, dose level Low, time 3 day
[2] = 100 mg/kg, 120 h, dose level Low, time 5 day
[3] = 1500 mg/kg, 72 h, dose level High, time 3 day
[4] = 1500 mg/kg, 120 h, dose level High, time 5 day

Nc1nc2c(c(=O)[nH]1)N(C=O)C(CNc1ccc(C(=O)N[C@@H](CCC(=O)O)C(=O)O)cc1)CN2 (some centres not stated) [LEUCOVORIN]
ABSOLUTE BASOPHIL [1]: 0 CELLS/uL | ABSOLUTE EOSINOPHIL [1]: 0 CELLS/uL | ABSOLUTE LYMPHOCYTE [1]: 14793 CELLS/uL | ABSOLUTE MONOCYTE [1]: 101.33 CELLS/uL | ABSOLUTE SEGMENTED NEUTROPHIL [1]: 1572.33 CELLS/uL | BASOPHIL [1]: 0% | EOSINOPHIL [1]: 0% | ERYTHROCYTE COUNT [1]: 5.73 x10E6/uL | HEMATOCRIT [1]: 35.97% | HEMOGLOBIN [1]: 14.23 G/DL | LEUKOCYTE COUNT [1]: 16.47 x10E3/uL | LYMPHOCYTE [1]: 89.67% | MEAN CORPUSCULAR HEMOGLOBIN [1]: 24.9 pg | MEAN CORPUSCULAR HEMOGLOBIN CONCENTRATION [1]: 39.63 G/DL | MEAN CORPUSCULAR VOLUME [1]: 62.83 fL | MONOCYTE [1]: 0.67% | NEUTROPHIL [1]: 9.67% | NUCLEATED RED BLOOD CELLS [1]: 0.33 /100WBC | PLATELET COUNT [1]: 1244.67 x10E3/uL | ALANINE AMINOTRANSFERASE [1]: 62.33 u/L | ALBUMIN [1]: 4.43 G/DL | ALKALINE PHOSPHATASE [1]: 427.33 u/L | ASPARTATE AMINOTRANSFERASE [1]: 83.67 u/L | BLOOD UREA NITROGEN [1]: 16.33 mg/dL | CARBON DIOXIDE [1]: 29 mmol/L | CHLORIDE [1]: 98.67 MEQ/L | CHOLESTEROL [1]: 67 mg/dL | CREATINE PHOSPHOKINASE [1]: 289.67 u/L | CREATININE [1]: 0.22 mg/dL | GLUCOSE [1]: 142 mg/dL | LACTATE DEHYDROGENASE [1]: 152.33 u/L | LIPASE [1]: 9.33 u/L | PHOSPHORUS [1]: 14.03 mg/dL | POTASSIUM [1]: 7.04 MEQ/L | SODIUM [1]: 146.13 MEQ/L | TOTAL BILIRUBIN [1]: 0.3 mg/dL | TOTAL PROTEIN [1]: 6.1 G/DL | URIC ACID [1]: 1.77 mg/dL | ABSOLUTE BASOPHIL [2]: 0 CELLS/uL | ABSOLUTE EOSINOPHIL [2]: 60.33 CELLS/uL | ABSOLUTE LYMPHOCYTE [2]: 13263.33 CELLS/uL | ABSOLUTE MONOCYTE [2]: 23.33 CELLS/uL | ABSOLUTE SEGMENTED NEUTROPHIL [2]: 1019.67 CELLS/uL | BASOPHIL [2]: 0% | EOSINOPHIL [2]: 0.33% | ERYTHROCYTE COUNT [2]: 5.54 x10E6/uL | HEMATOCRIT [2]: 36.17% | HEMOGLOBIN [2]: 13.53 G/DL | LEUKOCYTE COUNT [2]: 14.37 x10E3/uL | LYMPHOCYTE [2]: 92.67% | MEAN CORPUSCULAR HEMOGLOBIN [2]: 24.4 pg | MEAN CORPUSCULAR HEMOGLOBIN CONCENTRATION [2]: 37.4 G/DL | MEAN CORPUSCULAR VOLUME [2]: 65.23 fL | MONOCYTE [2]: 0.33% | NEUTROPHIL [2]: 6.67% | NUCLEATED RED BLOOD CELLS [2]: 1 /100WBC | PLATELET COUNT [2]: 1225.67 x10E3/uL | ALANINE AMINOTRANSFERASE [2]: 52 u/L | ALBUMIN [2]: 4.3 G/DL | ALKALINE PHOSPHATASE [2]: 311.67 u/L | ASPARTATE AMINOTRANSFERASE [2]: 76 u/L | BLOOD UREA NITROGEN [2]: 15.33 mg/dL | CARBON DIOXIDE [2]: 26 mmol/L | CHLORIDE [2]: 102 MEQ/L | CHOLESTEROL [2]: 57.33 mg/dL | CREATINE PHOSPHOKINASE [2]: 211.67 u/L | CREATININE [2]: 0.21 mg/dL | GLUCOSE [2]: 175.67 mg/dL | LACTATE DEHYDROGENASE [2]: 113.33 u/L | LIPASE [2]: 8.67 u/L | PHOSPHORUS [2]: 12.6 mg/dL | POTASSIUM [2]: 6.61 MEQ/L | SODIUM [2]: 146.23 MEQ/L | TOTAL BILIRUBIN [2]: 0.23 mg/dL | TOTAL PROTEIN [2]: 6.1 G/DL | URIC ACID [2]: 1.7 mg/dL | ABSOLUTE BASOPHIL [3]: 0 CELLS/uL | ABSOLUTE EOSINOPHIL [3]: 0 CELLS/uL | ABSOLUTE LYMPHOCYTE [3]: 14453.33 CELLS/uL | ABSOLUTE MONOCYTE [3]: 60 CELLS/uL | ABSOLUTE SEGMENTED NEUTROPHIL [3]: 2253.33 CELLS/uL | BASOPHIL [3]: 0% | EOSINOPHIL [3]: 0% | ERYTHROCYTE COUNT [3]: 5.28 x10E6/uL | HEMATOCRIT [3]: 35.03% | HEMOGLOBIN [3]: 13.77 G/DL | LEUKOCYTE COUNT [3]: 16.77 x10E3/uL | LYMPHOCYTE [3]: 86.33% | MEAN CORPUSCULAR HEMOGLOBIN [3]: 26.07 pg | MEAN CORPUSCULAR HEMOGLOBIN CONCENTRATION [3]: 39.33 G/DL | MEAN CORPUSCULAR VOLUME [3]: 66.33 fL | MONOCYTE [3]: 0.33% | NEUTROPHIL [3]: 13.33% | NUCLEATED RED BLOOD CELLS [3]: 0 /100WBC | PLATELET COUNT [3]: 1212 x10E3/uL | ALANINE AMINOTRANSFERASE [3]: 44.33 u/L | ALBUMIN [3]: 4.3 G/DL | ALKALINE PHOSPHATASE [3]: 372.67 u/L | ASPARTATE AMINOTRANSFERASE [3]: 77.67 u/L | BLOOD UREA NITROGEN [3]: 11.33 mg/dL | CARBON DIOXIDE [3]: 32 mmol/L | CHLORIDE [3]: 102 MEQ/L | CHOLESTEROL [3]: 68.33 mg/dL | CREATINE PHOSPHOKINASE [3]: 183.67 u/L | CREATININE [3]: 0.15 mg/dL | GLUCOSE [3]: 156 mg/dL | LACTATE DEHYDROGENASE [3]: 116 u/L | LIPASE [3]: 8.67 u/L | PHOSPHORUS [3]: 13.4 mg/dL | POTASSIUM [3]: 6.98 MEQ/L | SODIUM [3]: 146.03 MEQ/L | TOTAL BILIRUBIN [3]: 0.17 mg/dL | TOTAL PROTEIN [3]: 6 G/DL | URIC ACID [3]: 1.83 mg/dL | ABSOLUTE BASOPHIL [4]: 0 CELLS/uL | ABSOLUTE EOSINOPHIL [4]: 46.33 CELLS/uL | ABSOLUTE LYMPHOCYTE [4]: 14356 CELLS/uL | ABSOLUTE MONOCYTE [4]: 200.33 CELLS/uL | ABSOLUTE SEGMENTED NEUTROPHIL [4]: 930.67 CELLS/uL | BASOPHIL [4]: 0% | EOSINOPHIL [4]: 0.33% | ERYTHROCYTE COUNT [4]: 5.73 x10E6/uL | HEMATOCRIT [4]: 35.37% | HEMOGLOBIN [4]: 14.17 G/DL | LEUKOCYTE COUNT [4]: 15.53 x10E3/uL | LYMPHOCYTE [4]: 92.33% | MEAN CORPUSCULAR HEMOGLOBIN [4]: 24.8 pg | MEAN CORPUSCULAR HEMOGLOBIN CONCENTRATION [4]: 40.07 G/DL | MEAN CORPUSCULAR VOLUME [4]: 61.77 fL | MONOCYTE [4]: 1.33% | NEUTROPHIL [4]: 6% | NUCLEATED RED BLOOD CELLS [4]: 0 /100WBC | PLATELET COUNT [4]: 1112.33 x10E3/uL | ALANINE AMINOTRANSFERASE [4]: 56.67 u/L | ALBUMIN [4]: 4.3 G/DL | ALKALINE PHOSPHATASE [4]: 387 u/L | ASPARTATE AMINOTRANSFERASE [4]: 87.33 u/L | BLOOD UREA NITROGEN [4]: 16.33 mg/dL | CARBON DIOXIDE [4]: 36 mmol/L | CHLORIDE [4]: 99.67 MEQ/L | CHOLESTEROL [4]: 57.33 mg/dL | CREATINE PHOSPHOKINASE [4]: 288.67 u/L | CREATININE [4]: 0.2 mg/dL | GLUCOSE [4]: 147 mg/dL | LACTATE DEHYDROGENASE [4]: 263.67 u/L | LIPASE [4]: 9 u/L | PHOSPHORUS [4]: 12.9 mg/dL | POTASSIUM [4]: 6.55 MEQ/L | SODIUM [4]: 145.83 MEQ/L | TOTAL BILIRUBIN [4]: 0.2 mg/dL | TOTAL PROTEIN [4]: 6.13 G/DL | URIC ACID [4]: 1.37 mg/dL
